In patent publication US12668785B2, “Combination treatment by administering a recombinant apyrase protein in conjunction with a P2Y12 inhibitor” (ASTRAZENECA AB, priority 2020, dated 2026):
Where two headings read alike, the source gives them in different places.

Tests used:
[1] = test system: platelet aggregation; conditions: cited from earlier work; for time for platelet activity to return to baseline following discontinuance: after discontinuance
[2] = cited from earlier work; for time to peak plasma concentration: after oral administration; for mean elimination half-life: described in the drug label
[3] = test system: animal models; conditions: cited from earlier work
[4] = Plasma concentration of ticagrelor by LC-MS/MS; type: in vivo; conditions: C57BI6, mouse, intravenous, t = 80 min, ticagrelor 1.2 mg/kg + 30 μg/kg*min
Description: The plasma concentration of ticagrelor was determined by means of a Liquid Chromatographic-Mass Spectrometric (LC-MS/MS) method.

[5] = test system: pig animal model of myocardial infarction; assay: Cardiac damage assessed by CMR in pig model of myocardial infarction; type: in vivo; conditions: ticagrelor 180 mg p.o. 2 h prior MI, then 90 mg/bid
Description: (§1) Regular chow-fed Landrace pigs (n=20; weight≈40 kg) were randomly (Excel randomized function) distributed into four groups to receive: • I) Oral placebo-control (2 h prior Myocardial Infarction (MI) induction n=5) • II) A loading dose of ticagrelor (180 mg; n=5; p.o 2 h prior MI induction) • III) A loading dose of ticagrelor (180 mg; n=5; p.o 2 h prior MI induction and 1 mg/kg AZD3366 i.v. 10 min before reperfusion) • IV) A loading dose of ticagrelor (180 mg; n=5; p.o 2 h prior MI induction and 3 mg/kg AZD3366 i.v. 10 min before reperfusion)
(§2) Thereafter, pigs underwent temporary (90 minutes) balloon occlusion of the mid-left anterior descending coronary artery (experimental MI) and then reperfused, essentially as described in Vilahur et al. 2016. Throughout the following 42 days, the pigs received daily oral maintenance dosing of placebo (group I) or ticagrelor (90 mg/bid, groups II to IV) and serial Cardiac Magnetic Resonance (CMR) assessments were performed at day 3 (early remodeling phase) and day 42 (late remodeling phase) post-MI.
(§3) On the day of MI-induction animals received buprenorphine (0.03 mg/kg) and cefazoline (25 mg/kg) as prophylaxis for pain and wound infection, respectively, and then anaesthetized by administrating an intramuscular injection of ketamine (30 mg/kg), xylazine (2.2 mg/kg), and atropine (0.05 mg/kg). Once tranquilized, animals were endotracheally intubated and anesthesia was maintained by isoflurane inhalation (2%). Prior to starting the MI-induction procedure, an infusion of amiodarone (300 mg) and lidocaine (150 mg) in 1.000 mL of saline (250 mL/h) was initiated as prophylaxis for malignant ventricular arrhythmias through a line placed in the marginal ear vein and a bolus of heparin (100 U/kg) was administered to prevent clot formation in the catheters. […] Complete coronary ischemia (verified by angiography) was maintained for 90 minutes. At the end of the ischemic period, the balloon was completely deflated and animals were allowed to recover. Electrocardiogramand hemodynamic parameters were continuously recorded throughout the entire procedure and the echocardiographic system (Phillips iE33) equipped with a S5-1 sector array transducer was used prior- and post-MI induction to document the initial worsening of left ventricular ejection fraction (LVEF, M-mode analysis using the parasternal long-axis view; Vilahur et al. 2016).
(§4) CMR studies were conducted serially in all animals at Day 3 (early remodeling phase) and Day 42 (late remodeling phase) post-MI. The studies were performed on a 3.0T-CMR system (AchievaVR, Philips, Amsterdam, The Netherlands) and CMR image acquisition was carried out by a CMR specialized technician blinded in terms of treatment. For CMR studies, animals were anaesthetized with an intramuscular injection of a cocktail composed of ketamine, xylazine, and atropine and maintained by a continuous intravenous infusion of propofol to ensure mechanical ventilation. Once the animals were positioned in a head-first supine position with a flexible phased-array surface coil placed over the chest, ECG gating was used to acquire still images of the heart. The following dedicated CMR sequences were acquired in all cases: ‘cine’ Balanced Steady-State Free Precession (bSSFP) imaging sequence to assess wall motion (WM) and cardiac function; T2-weighted short-tau inversion recovery (T2w-STIR) sequence to assess myocardial edema; early gadolinium enhancement to study microvascular obstruction (no reflow phenomenon); and late gadolinium enhancement (LGE) to assess the amount and extent of myocardial necrosis. All the CMR studies followed the same scheme. First, scout images [T1-turbo field echo (TFE) sequence] were obtained to localize the true axes of the heart and define a field of view involving the whole heart. […]

[6] = test system: platelet aggregation; assay: ADP-induced whole blood platelet aggregation (Multiplate impedance aggregometer) after in vivo dosing; set-up: species or system mouse; conditions: for PA (AU*min): blood at t = 80 min, ADP 6.5 μmol/L
Description: Immediately after the blood sampling, 175 μL whole blood was added to the Multiplate® (Roche Diagnostics GmbH, Mannheim, Germany) mini test cells and mixed with 175 μL 37° C. pre-heated saline (9 mg/mL, Fresenius Kabi AG, Bad Homburg, Germany).

[7] = test system: pig animal model of myocardial infarction; assay: Global and regional cardiac function assessed by CMR in pig model of myocardial infarction; type: in vivo
Description: as §1, §2, §3, §4

[8] = test system: C57BI6 mice; assay: Mouse tail bleeding model (blood loss and bleeding time)
Description: (§5) C57BI6 mice were administered an intravenous bolus of AZD3366 or vehicle. In separate groups, mice were administered AZD3366 and ticagrelor or ticagrelor only as a bolus and continuous infusion of ticagrelor. The groups, doses and volumes of administration were as described in the following table:
(§6) Twenty min following dosing, bleeding was initiated by cutting 5 mm of the tip of the tail. The tail was rinsed with water and placed in a haemoglobin sensitive device. Light transmission through the blood and water mixture was recorded and converted to absorbance using the PharmLab software (V6.0, AstraZeneca R&D, Gothenburg, Sweden). Transmittance below 95% was defined as bleeding. Total blood loss, (area under the bleeding curve, t=20 min to t=80 min: cumulative blood loss vs time, absorbance*s, abs*s) and bleeding time (BT) were measured over 60 min from the start of tail cutting.

[9] = test system: C57BI6 mice; conditions: mouse, in vivo, iv
Description: as §5, §6

[10] = in vivo; cited from earlier work
[11] = test system: animal models; conditions: cited from earlier work; remark: listed apart in the source
[12] = test system: animal models of ischemic stroke; conditions: Sun et al., 2011; Tan et al., 2014; cited from earlier work
[13] = test system: adenosine diphosphatase activity; conditions: Moeckel et al. (2014); cited from earlier work
[14] = 3 Days Post-MI, ticagrelor 180 mg p.o. 2 h prior MI, then 90 mg/bid
[15] = 42 Days Post-MI, ticagrelor 180 mg p.o. 2 h prior MI, then 90 mg/bid
[16] = BSL (baseline), ticagrelor group
[17] = ticagrelor-treated animals, p<0.001
[18] = preclinical models (Moekel et al. 2015)

CCCSc1nc(N[C@@H]2C[C@H]2c2ccc(F)c(F)c2)c2nnn([C@@H]3C[C@H](O)[C@@H](O)[C@H]3O)c2n1 [AR-C124910XX]
potency of active metabolite relative to ticagrelor ([1]; in vivo): approximately equipotent | time to peak plasma concentration [2]: ~2.5 h | mean elimination half-life [2]: 9 h

CSCCNc1nc(SCCC(F)(F)F)nc2c1ncn2[C@@H]1O[C@H](COP(=O)(O)OP(=O)(O)C(Cl)(Cl)P(=O)(O)O)[C@@H](O)[C@H]1O [Cangrelor]
time for platelet responses to return to baseline ([1]; after discontinuation): ≤ 15 min | time to maximal platelet inhibition ([1]; in vivo): ≤ 15 min | time to steady state plasma levels and platelet aggregation inhibition ([2]; from onset of infusion): ≤ 30 min | elimination half-life ([2]; in vivo): 3 to 6 min | plasma half-life ([2]; in vivo): less than 9 min

COC(=O)[C@H](c1ccccc1Cl)N1CCc2sccc2C1 [Clopidogrel]
cardioprotection / protective efficacy ([3]; FIG. 6 of Moeckel et al. (2014)): not cardioprotective | time for platelet activity to return to baseline following discontinuance [1]: about 5 days | time at which dose-dependent platelet aggregation inhibition is observed ([1]; following oral administration of a single dose): around 2 hours | elimination half-life ([2]; following a single dose of 75 mg): approximately 6 hours | time to peak plasma concentrations of the active metabolite ([2]; following an oral dose, analyte: active metabolite): 30 to 60 min

CC(=O)Oc1cc2c(s1)CCN(C(C(=O)C1CC1)c1ccccc1F)C2 (stereo not shown) [Prasugrel]
elimination half-life ([2]; stated after the active metabolite of prasugrel): about 7.4 hours

CCCSc1nc(N[C@@H]2C[C@H]2c2ccc(F)c(F)c2)c2nnn([C@@H]3C[C@H](OCCO)[C@@H](O)[C@H]3O)c2n1 [Ticagrelor, (1S,2S,3R,5S)-3-[7-[[(1R,2S)-2-(3,4-difluorophenyl)cyclopropyl]amino]-5-(propylthio)-3H-1,2,3-triazolo[4,5-d]pyrimidin-3-yl]-5-(2-hydroxyethoxy)-1,2-cyclopentanediol]
concentration at 80 min [4]: 8 ± 0.2 µM | time maximum inhibition of platelet aggregation is maintained ([1]; after a dose): more than 8 hours | time for platelet activity to return to baseline following discontinuance [1]: 5 days | Edema % of LV mass ([5]; 3 Days Post-MI): 13.1 ± 0.9 % | Edema (gr) ([5]; 3 Days Post-MI): 10.5 ± 0.8 gr | LV Mass ([5]; 3 Days Post-MI): 81.3 ± 7.4 | Necrosis % of LV mass ([5]; 3 Days Post-MI): 8.2 ± 1.2 % | Necrosis (gr) ([5]; 3 Days Post-MI): 6.6 ± 1.0 gr | LV Mass ([5]; 42 Days Post-MI): 108.6 ± 6.9 | Necrosis % of LV mass ([5]; 42 Days Post-MI): 4.3 ± 0.8 % | Necrosis (gr) ([5]; 42 Days Post-MI): 4.7 ± 1.0 gr | PA (AU*min) ([6]; ticagrelor 1.2 mg/kg + 30 μg/kg*min): 2 ± 2 AU*min | LVEF % [7, 14]: 50.3 ± 2.9% | Wall motion (mm) [7, 14]: 1.88 mm | LVEF % [7, 15]: 47.0 ± 4.4% | Wall motion (mm) [7, 15]: 2.55 mm | LVEF % [7, 16]: 53.7 ± 2.8% | Wall motion (mm) [7, 16]: 2.66 mm | BT (s) Median ([8]; bleeding time over 60 min, ticagrelor bolus 1.2 mg/kg + infusion 30 μg/kg*min): 3433a, d s | Blood loss (abs*s) Median ([8]; tail transection at t = 20 min, recorded 60 min, ticagrelor bolus 1.2 mg/kg + infusion 30 μg/kg*min): 1157a, b, c abs*s | BT increase as compared to vehicle [8, 17]: 5.2 fold | Blood loss increase as compared to vehicle [8, 17]: 7.2 fold | time to peak plasma concentration [2]: approximately 1.5 hours | mean elimination half-life [2]: 7 h

Clc1ccccc1CN1CCc2sccc2C1 [ticlopidine]
time to peak plasma concentration [2]: around 2 hours

B1: AZD3366: recombinant optimised form of soluble CD39L3 apyrase (R67G, T69R, N-terminal EVLP), amino acid sequence SEQ ID NO: 2 (protein)
chain: EVLPPGLKYGIVLDAGSSGTRVYVYQWPAEKENNTGVVSQTFKCSVKGSGISSYGNNPQDVPRAFEECMQKVKGQVPSHLHGSTPIHLGATAGMRLLRLQNETAANEVLESIQSYFKSQPFDFRGAQIISGQEEGVYGWITANYLMGNFLEKNLWHMWVHPHGVETTGALDLGGASTQISFVAGEKMDLNTSDIMQVSLYGYVYTLYTHSFQCYGRNEAEKKFLAMLLQNSPTKNHLTNPCYPRDYSISFTMGHVFDSLCTVDQRPESYNPNDVITFEGTGDPSLCKEKVASIFDFKACHDQETCSFDGVYQPKIKGPFVAFAGFYYTASALNLSGSFSLDTFNSSTWNFCSQNWSQLPLLLPKFDEVYARSYCFSANYIYHLFVNGYKFTEETWPQIHFEKEVGNSSIAWSLGYMLSLTNQIPAESPLIRLPIEPPV
modifications: N-terminal EVLP
BT (s) Median ([9]; 1 mg/kg): 589 s | Blood loss (abs*s) Median ([9]; 1 mg/kg): 157 abs*s | BT (s) Median ([9]; 3 mg/kg): 1438 s | Blood loss (abs*s) Median ([9]; 3 mg/kg): 342e abs*s | plasma half-life compared with native apyrase [10]: 50 times | time until active after administration ([11]; animal models): ≤ 5 min | time until return to baseline ([11]; animal models): 3 to 4 weeks | time activity is maintained [11, 18]: more than 24 hours | time to high levels of activity after administration [11, 18]: within minutes | bleeding time ([3]; Moeckel et al. (2014)): without an increase in bleeding time | infarction size ([3]; Moeckel et al. (2014)): decreased infarction size | reperfusion, re-occlusion and intracerebral bleeding [12]: enhance reperfusion, reduce re-occlusion and reduce intracerebral bleeding | adenosine diphosphatase activity compared with native apyrase [13]: four times higher | platelet aggregation (PA) inhibition ([6]; AZD3366 1 and 3 mg/kg): complete platelet aggregation (PA) inhibition | PA (AU*min) ([6]; AZD3366 1.0 mg/kg): 2 ± 2 AU*min | PA (AU*min) ([6]; AZD3366 3.0 mg/kg): 0 ± 0 AU*min
